Holding throughout (test): DSF Tm panel
What all share (assay type): binding
Common to all, as to conditions: 10 μM compound

The target in one test is T1, AAK1 (AAK1A) (Homo sapiens, UniProt Q2M2I8).
T1 construct: purchased in-house DSF kinase panel (SGC-style construct names; the trailing letter is the construct ID)

For another test, the target named is T2, STK10 (Homo sapiens, UniProt O94804).
T2 construct: purchased in-house DSF kinase panel (SGC-style construct names; the trailing letter is the construct ID)
T2 sequence (O94804 18-317 limits assumed): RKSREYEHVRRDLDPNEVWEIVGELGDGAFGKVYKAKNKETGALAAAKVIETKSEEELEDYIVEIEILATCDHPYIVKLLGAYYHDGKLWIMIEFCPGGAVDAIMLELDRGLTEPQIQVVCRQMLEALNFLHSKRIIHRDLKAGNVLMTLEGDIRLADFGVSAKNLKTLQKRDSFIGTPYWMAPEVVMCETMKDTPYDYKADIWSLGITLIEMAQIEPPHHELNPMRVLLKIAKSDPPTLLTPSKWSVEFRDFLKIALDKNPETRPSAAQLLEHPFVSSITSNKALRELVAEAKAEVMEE

The next test deals with T3, DYRK2A (Homo sapiens, UniProt Q92630).
T3 construct: purchased in-house DSF kinase panel (SGC-style construct names; the trailing letter is the construct ID)
T3 sequence (Q92630 1-601): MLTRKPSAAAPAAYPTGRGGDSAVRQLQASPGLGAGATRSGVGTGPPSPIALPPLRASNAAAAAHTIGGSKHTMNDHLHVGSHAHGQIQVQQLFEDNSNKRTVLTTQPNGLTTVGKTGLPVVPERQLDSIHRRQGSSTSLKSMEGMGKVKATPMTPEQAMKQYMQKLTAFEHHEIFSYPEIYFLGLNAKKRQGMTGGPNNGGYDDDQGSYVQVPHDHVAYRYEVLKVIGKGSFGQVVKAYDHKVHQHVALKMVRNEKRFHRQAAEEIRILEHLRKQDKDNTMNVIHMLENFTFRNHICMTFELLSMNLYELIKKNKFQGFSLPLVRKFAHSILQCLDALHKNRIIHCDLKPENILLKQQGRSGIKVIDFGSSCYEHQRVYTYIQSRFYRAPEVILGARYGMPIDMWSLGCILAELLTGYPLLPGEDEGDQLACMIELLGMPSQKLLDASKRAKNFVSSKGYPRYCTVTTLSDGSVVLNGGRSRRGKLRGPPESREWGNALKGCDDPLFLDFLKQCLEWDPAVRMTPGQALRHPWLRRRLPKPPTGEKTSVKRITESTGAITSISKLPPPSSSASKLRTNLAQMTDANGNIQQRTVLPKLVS

Another test deals with T4, STK39A (Homo sapiens, UniProt Q9UEW8).
T4 construct: purchased in-house DSF kinase panel (SGC-style construct names; the trailing letter is the construct ID)

The next test has as its target T5, MELKA (Homo sapiens, UniProt Q14680).
T5 construct: purchased in-house DSF kinase panel (SGC-style construct names; the trailing letter is the construct ID)

Another test has as its target T6, MAPK9A (Homo sapiens, UniProt P45984).
T6 construct: purchased in-house DSF kinase panel (SGC-style construct names; the trailing letter is the construct ID)

In a further test the target is T7, MAP2K6A (Homo sapiens, UniProt P52564).
T7 construct: purchased in-house DSF kinase panel (SGC-style construct names; the trailing letter is the construct ID)
T7 sequence (P52564 53-314): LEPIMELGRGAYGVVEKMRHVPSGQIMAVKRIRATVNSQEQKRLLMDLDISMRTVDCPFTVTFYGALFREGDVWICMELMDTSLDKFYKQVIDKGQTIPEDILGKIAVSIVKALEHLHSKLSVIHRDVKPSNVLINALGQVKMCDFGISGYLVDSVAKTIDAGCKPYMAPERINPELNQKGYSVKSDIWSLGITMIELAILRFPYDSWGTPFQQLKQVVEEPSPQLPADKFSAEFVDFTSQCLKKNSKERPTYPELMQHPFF

The target in the next test is T8, STK17BA (Homo sapiens, UniProt O94768).
T8 construct: purchased in-house DSF kinase panel (SGC-style construct names; the trailing letter is the construct ID)
T8 sequence (O94768 25-329): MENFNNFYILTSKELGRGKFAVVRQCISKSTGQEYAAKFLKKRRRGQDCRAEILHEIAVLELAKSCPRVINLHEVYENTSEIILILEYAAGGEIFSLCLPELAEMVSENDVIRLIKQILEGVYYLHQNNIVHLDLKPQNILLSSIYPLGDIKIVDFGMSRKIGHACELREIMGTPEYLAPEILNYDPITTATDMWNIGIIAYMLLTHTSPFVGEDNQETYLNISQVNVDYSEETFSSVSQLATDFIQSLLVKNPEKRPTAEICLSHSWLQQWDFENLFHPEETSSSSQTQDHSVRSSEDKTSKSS

The next test deals with T9, DMPK1A (Homo sapiens, UniProt Q09013).
T9 construct: purchased in-house DSF kinase panel (SGC-style construct names; the trailing letter is the construct ID)
T9 sequence (Q09013 1-629): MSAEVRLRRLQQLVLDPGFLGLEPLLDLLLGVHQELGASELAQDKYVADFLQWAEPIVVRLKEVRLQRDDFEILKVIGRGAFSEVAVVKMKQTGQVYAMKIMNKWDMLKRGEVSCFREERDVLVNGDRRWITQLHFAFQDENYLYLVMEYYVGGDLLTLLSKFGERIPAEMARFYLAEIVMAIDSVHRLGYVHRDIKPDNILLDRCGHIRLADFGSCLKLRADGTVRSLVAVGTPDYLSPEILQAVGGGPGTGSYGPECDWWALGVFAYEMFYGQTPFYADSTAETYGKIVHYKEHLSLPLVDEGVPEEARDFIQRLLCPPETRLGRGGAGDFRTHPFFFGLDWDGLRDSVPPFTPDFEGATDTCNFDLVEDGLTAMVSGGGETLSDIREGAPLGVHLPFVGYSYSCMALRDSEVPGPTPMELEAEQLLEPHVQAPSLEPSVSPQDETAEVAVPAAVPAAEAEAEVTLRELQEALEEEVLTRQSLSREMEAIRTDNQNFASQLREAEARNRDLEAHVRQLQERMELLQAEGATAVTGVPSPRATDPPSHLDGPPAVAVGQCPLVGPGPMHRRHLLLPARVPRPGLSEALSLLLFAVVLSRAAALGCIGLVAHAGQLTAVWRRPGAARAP

For another test, the target named is T10, MAPK13A (Homo sapiens, UniProt O15264).
T10 construct: purchased in-house DSF kinase panel (SGC-style construct names; the trailing letter is the construct ID)
T10 sequence (O15264 1-365): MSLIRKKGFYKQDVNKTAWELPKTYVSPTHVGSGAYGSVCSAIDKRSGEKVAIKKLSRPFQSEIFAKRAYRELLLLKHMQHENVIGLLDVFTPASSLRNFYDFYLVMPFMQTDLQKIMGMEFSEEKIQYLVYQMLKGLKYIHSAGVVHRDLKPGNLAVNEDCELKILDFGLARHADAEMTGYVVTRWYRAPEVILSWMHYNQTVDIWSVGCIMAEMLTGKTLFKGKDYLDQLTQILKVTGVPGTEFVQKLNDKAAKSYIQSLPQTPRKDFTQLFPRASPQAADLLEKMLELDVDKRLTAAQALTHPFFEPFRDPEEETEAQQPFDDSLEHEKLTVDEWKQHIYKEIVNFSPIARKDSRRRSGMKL

Another test has as its target T11, EPHA7A (Homo sapiens, UniProt Q15375).
T11 construct: purchased in-house DSF kinase panel (SGC-style construct names; the trailing letter is the construct ID)

T5 sequence (Q14680 1-340): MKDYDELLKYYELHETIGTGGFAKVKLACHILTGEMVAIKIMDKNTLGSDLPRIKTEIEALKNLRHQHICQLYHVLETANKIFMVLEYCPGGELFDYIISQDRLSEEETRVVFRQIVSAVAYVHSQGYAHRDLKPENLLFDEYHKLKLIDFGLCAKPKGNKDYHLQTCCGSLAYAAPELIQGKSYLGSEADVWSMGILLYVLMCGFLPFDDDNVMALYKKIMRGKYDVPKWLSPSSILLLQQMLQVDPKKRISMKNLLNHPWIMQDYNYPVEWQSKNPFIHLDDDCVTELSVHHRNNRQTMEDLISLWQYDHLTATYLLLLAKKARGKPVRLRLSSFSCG
T1 sequence (Q2M2I8 27-365): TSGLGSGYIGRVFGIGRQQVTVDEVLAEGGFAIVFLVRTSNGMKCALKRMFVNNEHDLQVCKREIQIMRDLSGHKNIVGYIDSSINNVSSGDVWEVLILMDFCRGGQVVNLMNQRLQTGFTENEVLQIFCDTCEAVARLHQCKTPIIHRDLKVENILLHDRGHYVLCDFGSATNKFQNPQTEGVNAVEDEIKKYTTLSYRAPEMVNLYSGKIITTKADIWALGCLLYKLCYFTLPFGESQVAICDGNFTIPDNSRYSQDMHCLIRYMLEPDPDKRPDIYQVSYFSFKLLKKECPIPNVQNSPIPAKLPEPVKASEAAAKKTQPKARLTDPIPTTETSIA
T11 sequence (Q15375 590-899): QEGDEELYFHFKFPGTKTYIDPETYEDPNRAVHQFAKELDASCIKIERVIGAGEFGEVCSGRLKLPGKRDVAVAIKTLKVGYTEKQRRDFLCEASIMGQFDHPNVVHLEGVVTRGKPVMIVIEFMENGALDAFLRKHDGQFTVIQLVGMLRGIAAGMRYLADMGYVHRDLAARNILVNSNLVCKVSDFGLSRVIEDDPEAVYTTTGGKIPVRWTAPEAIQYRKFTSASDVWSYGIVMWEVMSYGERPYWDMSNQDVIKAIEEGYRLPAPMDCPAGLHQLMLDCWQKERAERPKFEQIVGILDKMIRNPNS
T6 sequence (P45984 7-364): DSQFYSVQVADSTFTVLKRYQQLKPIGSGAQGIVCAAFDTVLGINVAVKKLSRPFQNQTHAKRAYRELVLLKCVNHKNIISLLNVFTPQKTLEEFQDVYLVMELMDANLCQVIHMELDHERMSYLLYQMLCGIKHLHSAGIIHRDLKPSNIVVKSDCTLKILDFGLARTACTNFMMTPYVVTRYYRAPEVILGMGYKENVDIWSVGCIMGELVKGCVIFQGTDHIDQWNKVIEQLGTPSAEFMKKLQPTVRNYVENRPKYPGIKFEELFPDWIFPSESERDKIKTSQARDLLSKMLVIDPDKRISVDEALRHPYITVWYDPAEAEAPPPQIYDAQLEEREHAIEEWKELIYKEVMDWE

As to `O=C(NCc1ccccc1)Nc1ccc2cc1OCCOCCNc1ccn3ncc-2c3n1` [compound 16], the shift in melting temperature (ΔTm) at 10 µM came out at 8.3 °C on AAK1 (AAK1A); 6.9 °C on STK10; 3.7 °C on DYRK2A; 3 °C at STK39A; 2 °C at MELKA; 1.7 °C on MAPK9A. The ΔTm at 10 µM on MAP2K6A was 1.4 °C; on STK17BA, 1.3 °C; on DMPK1A it was 0.3 °C; on MAPK13A, 0.1 °C; on EPHA7A, -0.1 °C.

As for `O=C(NCc1ccccc1Cl)Nc1ccc2cc1OCCOCCNc1ccn3ncc-2c3n1` [compound 17], the thermal shift (ΔTm) at 10 µM on AAK1 (AAK1A) is 7 °C; on STK10, 8.5 °C; at DYRK2A it was 1.1 °C; on STK39A, 2.4 °C; at MELKA it was 2.4 °C; at MAPK9A, 0.4 °C. Moreover, the ΔTm at 10 µM is 0.9 °C at MAP2K6A; 4.1 °C at STK17BA; -0.1 °C at DMPK1A; 0.5 °C on MAPK13A; 0.4 °C at EPHA7A.

`O=C(NCc1cccc(Cl)c1)Nc1ccc2cc1OCCOCCNc1ccn3ncc-2c3n1` [compound 18]: the shift in melting temperature (ΔTm) at 10 µM was determined as 5.5 °C at AAK1 (AAK1A); 9.4 °C at STK10; 2.8 °C at DYRK2A; 4 °C on STK39A; 1.5 °C on MELKA; 0.5 °C on MAPK9A. Also, the shift in melting temperature (ΔTm) at 10 µM was determined as 1.2 °C at MAP2K6A; 2.4 °C at STK17BA; 0.1 °C at DMPK1A; 0.7 °C on MAPK13A; 0.8 °C at EPHA7A.

With `O=C(NCc1ccc(Cl)cc1)Nc1ccc2cc1OCCOCCNc1ccn3ncc-2c3n1` [compound 19], the ΔTm at 10 µM was 7.1 °C at AAK1 (AAK1A); 10 °C at STK10; 0.2 °C on DYRK2A; 2.6 °C at STK39A; 1.5 °C on MELKA; 0.3 °C on MAPK9A. In addition, the ΔTm at 10 µM on MAP2K6A came out at 1.1 °C; at STK17BA it was 1.2 °C; at DMPK1A it was 0.3 °C; at MAPK13A, 0.6 °C; on EPHA7A, 0.4 °C.

In the case of `O=C(NCc1ccc(Cl)cc1Cl)Nc1ccc2cc1OCCOCCNc1ccn3ncc-2c3n1` [compound 20], the shift in melting temperature (ΔTm) at 10 µM amounted to 6.3 °C at AAK1 (AAK1A); 9.6 °C on STK10; 0.6 °C at DYRK2A; 1.9 °C on STK39A; 0.9 °C on MELKA; 1.5 °C on MAPK9A. The ΔTm at 10 µM at MAP2K6A was found to be 1.1 °C; at STK17BA, 2.8 °C; on DMPK1A, 0.7 °C; on MAPK13A, 0.4 °C; on EPHA7A it was 1 °C.

As to `O=C(NCc1ccc(Cl)cc1F)Nc1ccc2cc1OCCOCCNc1ccn3ncc-2c3n1` [compound 21], the shift in melting temperature (ΔTm) at 10 µM on AAK1 (AAK1A) was found to be 7.1 °C; at STK10 it was 7.3 °C; on DYRK2A, 0.7 °C; at STK39A it was 2.4 °C; at MELKA, 2.4 °C; on MAPK9A, 0.3 °C. Moreover, the ΔTm at 10 µM worked out at 1.3 °C at MAP2K6A; 2.7 °C on STK17BA; 0.2 °C at DMPK1A; 0.6 °C at MAPK13A; 1.9 °C on EPHA7A.

For `Cc1cc(Cl)ccc1CNC(=O)Nc1ccc2cc1OCCOCCNc1ccn3ncc-2c3n1` [compound 23], the ΔTm at 10 µM amounted to 6.5 °C on AAK1 (AAK1A); 11.1 °C on STK10; 0.8 °C at DYRK2A; 2.5 °C on STK39A; 1.1 °C at MELKA; 2 °C on MAPK9A. In addition, the ΔTm at 10 µM on MAP2K6A amounted to 0.4 °C; on STK17BA, 3.3 °C; at DMPK1A, 0.5 °C; on MAPK13A, 0.3 °C; at EPHA7A it was 1 °C.

For `Cc1cc(Br)ccc1CNC(=O)Nc1ccc2cc1OCCOCCNc1ccn3ncc-2c3n1` [compound 24], the ΔTm at 10 µM on AAK1 (AAK1A) was 4 °C; on STK10, 8.3 °C; on DYRK2A it was 0.5 °C; at STK39A, 1 °C; at MELKA, 0 °C; at MAPK9A, -1.2 °C. The shift in melting temperature (ΔTm) at 10 µM on MAP2K6A is 0.6 °C; at STK17BA it was 3.6 °C; at DMPK1A, 0.3 °C; on MAPK13A it was -0.4 °C; at EPHA7A it was 2 °C.

Regarding `Cc1ccc(F)cc1CNC(=O)Nc1ccc2cc1OCCOCCNc1ccn3ncc-2c3n1` [compound 26], the ΔTm at 10 µM on AAK1 (AAK1A) is 5 °C; on STK10 it was 9.2 °C; at DYRK2A, 2.3 °C; on STK39A, 0.9 °C; on MELKA it was 1.1 °C; at MAPK9A, -1.6 °C. Besides, the shift in melting temperature (ΔTm) at 10 µM was 0.7 °C on MAP2K6A; 3.1 °C on STK17BA; 0.3 °C at DMPK1A; -0.2 °C on MAPK13A; 2 °C at EPHA7A.

With `O=C(NCc1ccccc1C(F)(F)F)Nc1ccc2cc1OCCOCCNc1ccn3ncc-2c3n1` [compound 27], the ΔTm at 10 µM on AAK1 (AAK1A) was 3.9 °C; at STK10 it was 10.2 °C; at DYRK2A, 0.8 °C; on STK39A, 1.5 °C; on MELKA, 0.4 °C; on MAPK9A, -0.1 °C. The ΔTm at 10 µM on MAP2K6A is 1.2 °C; at STK17BA, 5.1 °C; on DMPK1A it was 0.2 °C; at MAPK13A, -0.5 °C; on EPHA7A, 3 °C.

As to `O=C(NCc1ccc(C(F)(F)F)cc1)Nc1ccc2cc1OCCOCCNc1ccn3ncc-2c3n1` [compound 28], the ΔTm at 10 µM on AAK1 (AAK1A) is 4.7 °C; at STK10 it was 9.9 °C; at DYRK2A, 1.2 °C; at STK39A, 1.3 °C; on MELKA, 0.9 °C; at MAPK9A it was -0.2 °C. Also, the ΔTm at 10 µM at MAP2K6A is 1.1 °C; on STK17BA, 4.8 °C; on DMPK1A, 0.3 °C; at MAPK13A it was -0.5 °C; at EPHA7A, 3.5 °C.

The record behind these values is article PMC12621043, “Un-LOK-ing a New Approach for Conformational Selective Targeting of STK10 (LOK)” (ACS Medicinal Chemistry Letters, 2025).
